The experiment concerns Microcystis aeruginosa. Nature of the experiment: Inhibition of algal growth, detection of Chlorophyll-a content by spectrometry (absorbance at 665 nm after ethanol extraction). It is filed as cell-based. On the procedure:
In the following embodiment, three specimens, chitosan, glucosamine, and the combination of both, were used as inhibitors to inhibit algal growth and their inhibition efficiency was tested as well. In this embodiment, one kind of toxic Cyanobacteria, Microcystis aeruginosa, is used for the inhibition test. Since chlorophyll-a content of algae is widely used as an indicator of the abundance of algae in a freshwater body, the chlorophyll-a content of Microcystis aeruginosa in the sample was detected by spectrometry.
First, four 0.5 ml portions of Microcystis aeruginosa solution were obtained and were labeled as sample I, II, III and IV, respectively, and 49.5 ml of Bold's medium was added to each sample. Next, chitosan, glucosamine, and the combination were added to sample II, III and IV, respectively, so that sample II contains 10 ppm chitosan, and sample III contains 10 ppm glucosamine, and sample IV contains 5 ppm chitosan and 5 ppm glucosamine. Sample I without any chitosan and glucosamine added was used as the control. After that, these four samples were cultured for 14 days. During that time, the Chlorophyll-a content of four samples were detected every 7 days according to the procedures mentioned below.
A portion of each sample was obtained and centrifuged at 10000 rpm at 20° C. for 15 mins, and then the supernatant was poured out. Next, four 10 ml portions of 95% (v/v) ethanol were added to sample I to IV and mixed with the residues. Next, the solution of each sample was water-bathed in 60° C. water for 30 mins to extract Chlorophyll-a. When being bathed in the water, the solution of each sample was shaken every ten minutes. After that, the solutions were centrifuged at 5000 G at 20° C. for 15 minutes and the supernatants were kept. Then, the absorbance at 665 nm of […] were detected. Finally, according to the “Standard Methods for the Examination Chlorophyll-a in Water-Ethanol Extraction” issued by National Institute of Environmental Analysis, Taiwan (NIEA E508.00B), the absorbance at 665 nm of samples I to IV were calibrated and the concentration of Chlorophyll-a content of each sample was calculated by the absorbance measured.
Basically, the whole process was the same as mentioned above except the concentration of chitosan and glucosamine in samples, and the Chlorophyll-a content was also detected. The concentration of glucosamine and chitosan contained in each sample and the Chlorophyll-a content detected are show in Table 2.

As for `N[C@H]1C(O)O[C@H](CO)[C@@H](O)[C@@H]1O` (stereo partly drawn) [III, glucosamine], the “Chlorophyll-a Content” value by setting is: (Embodiment I, 0th day, Microcystis aeruginosa in Bold's medium) 6.9 ppb; (Embodiment I, 7th day, control (sample I) 278 ppb) 33 ppb; (Embodiment I, 14th day, control (sample I) 2470 ppb) 554 ppb; (Embodiment II, 7th day, Blank 62 ppb, original content 9.7 ppb) 50 ppb; (Embodiment II, 14th day, Blank 418 ppb, original content 9.7 ppb) 124 ppb. Further, the “inhibition of the growth of algae (in words)” value (Microcystis aeruginosa, chlorophyll-a as indicator) is listed as “could inhibit the growth of algae”.

The record behind these values is patent US20090280984A1, “Method of Inhibiting the Growth of Algae” (ITEQ CORPORATION, priority 2008, published 2009).
